Bridge positions count the residues as written; N and C are the ends. Square brackets hold non-standard residues; d marks the D form. Peptide text beside a SMILES is read from it. dPhe(4-Cl) = N[C@H](Cc1ccc(Cl)cc1)C(=O)O; d2Nal = N[C@H](Cc1ccc2ccccc2c1)C(=O)O; Dap = NC[C@H](N)C(=O)O

The nature of the experiment: Biological potency in the anti-ovulatory assay in rat (dosage rats ovulating/total rats). The class given is functional.
In the case of `CC(=O)N[C@H](Cc1ccc2ccccc2c1)C(=O)N[C@H](Cc1ccc(Cl)cc1)C(=O)N[C@H](Cc1c[nH]c2ccccc12)C(=O)N[C@H]1CC(=O)NC[C@@H](C(N)=O)NC(=O)[C@@H]2CCCN2C(=O)[C@@H]2CCCCNC(=O)CC[C@H](NC1=O)C(=O)N[C@H](CCCN=C(N)N)C(=O)N[C@@H](CC(C)C)C(=O)N2` (Ac-[d2Nal][dPhe(4-Cl)][dW]DE[dR]LKP[Dap]-NH2; lactam 4-10, 5-8), the Dosage came to 5 µg.

As for `CC(C)C[C@@H]1C(=O)N[C@@H](CCCN=C(N)N)C(=O)N2CCC[C@@H]2C(=O)NCCC(=O)N2CCC[C@@H]2C(=O)N[C@@H](Cc2ccc(Cl)cc2)C(=O)N[C@H](Cc2c[nH]c3ccccc23)C(=O)N[C@@H](CO)C(=O)N[C@H](Cc2ccc(O)cc2)C(=O)N[C@@H](Cc2c[nH]c3ccccc23)C(=O)N1C`, the Dosage was 1000 µg.

On to `CC(=O)N1CCC[C@H]1C(=O)N[C@H](Cc1ccc(F)cc1)C(=O)N[C@H](Cc1c[nH]c2ccccc12)C(=O)N[C@H]1CC(=O)NC[C@@H](C(N)=O)NC(=O)[C@@H]2CCCN2C(=O)[C@H](CCCN=C(N)N)NC(=O)[C@H](CC(C)C)NC(=O)[C@@H](Cc2ccc3ccccc3c2)NC(=O)[C@H](Cc2ccc(O)cc2)NC1=O`, for which the Dosage was determined as 10 µg.

For the origin of these results see ChEMBL document CHEMBL1126869, “Conformational analysis of a highly potent dicyclic gonadotropin-releasing hormone antagonist by nuclear magnetic resonance and molecular dynamics” (1993).
